Data reported in patent US6495593B1, “Compositions for preventing or treating adverse physiological effects associated with cardiac disease” (Dry Creek Nutrition, Inc., priority 1999, dated 2002).

Key:
[1] = In vitro hydroxyl radical scavenging assay (γ-irradiated coumarin-3-carboxylic acid); conditions: 1 mM; 10^-5 M CCA, γ-irradiation
Protocol: Aqueous solution of coumarin-3-carboxylic acid (CCA) was diluted in PBS buffer, pH 7.4 to give a final concentration of 10^−5 M. Polymethylmethacrylate cuvettes containing 2.5 mL CCA solution were irradiated with ^137Cs γ-ray (dose rate 1.14 Gy/min) (MDS Nordian., Ontario, Canada) at room temperature. […] Fluorescence was measured at room temperature with a Perkin Elmer LS 50 fluorimeter (excitation 400 nm, emission 450 nm) (Collins et al., “Coumarin Chemical Dosimeter for Radiation Therapy,” Med. Phys., 21: 1741-1747 (1994)). […] The scavenging activity of the proanthocyanidin extract was compared against 1 mM DMSO.

[2] = In vitro peroxyl radical scavenging assay (AAPH / 5-/6-carboxyfluorescein); conditions: 25 μg/mL; AAPH 2 mM
Protocol: Peroxyl radical scavenging activity was examined by adding proanthocyanidin to a peroxyl radical generating system (Makrigiorgos et al., “Novel Fluorescein-Based Flow Cytometric Method for Detection of Lipid Peroxidation,” Free Rad. Biol. Med., 22:93-100 (1997)). Peroxyl radicals were generated by dissolving 2,2′-azobis (2-amidinopropane) dihydrochloride (AAPH) in phosphate buffered saline (PBS) at 37° C. Scavenging activity of proanthocyanidin was compared with trolox (100 μM), a known peroxyl radical scavenger.

Row | Structure (SMILES) | induction of 7-OH-CCA formation (hydroxyl radical scavenging) [1] | peroxyl radical scavenging activity relative to proanthocyanidin 10 μg/mL [2]
1 | C[S+](C)[O-] [DMSO, dimethyl sulfoxide] | reduced the induction of 7-OH-CCA formation | 
2 | Cc1c(C)c2c(c(C)c1O)CCC(C)(C(=O)O)O2 (centres unmarked) [trolox] |  | comparable
